# Experimental data published in US9423343B2, “Membrane potential change detection device and membrane potential change detection method” (HAMAMATSU PHOTONICS K.K., priority 2010, dated 2016).
# Test system: CHO cells
# Assay: Reflection interference measurement of membrane potential change (depolarization) after KCl dispensation, Measurement Example 1
# Assay type: cell-based, Chinese hamster
# Settings: for change rate of average luminosity at the peak: peak slightly over five minutes, FIG. 11
# Description: The functions and operation of the processing unit 20 will be described further referring to the flowchart of FIG. 7. First, the reflection interference image of adhesion faces of cells 101 is obtained by the reflection interference detection camera 110 (step S101, corresponding to “reflection interference imaging step” in the scope of claims). The amplitude of interfering light differs according to the distance of each cell 101 adhering onto the substrate as the bottom surface of the vessel 102 from the substrate as the bottom surface of the vessel 102, and the reflection interference image is taken as a contrast of bright and dark patterns. Next, correction is made for shading of reflected light in the field of the reflection interference image. In addition, an offset correction for background part is carried out in each time unit, so as to prevent temporal variation in value of the background without the cells 101. Through these image arithmetic corrections, we can obtain the reflection interference image with little spatial and temporal variation.
# The reflection interference detection camera 110 acquires reflection interference images, for example, at intervals of one second. The intervals of acquisition of reflection interference images are preferably suitably controlled according to a rate of change of membrane potential of the cells 101. After a fixed time from a start of acquisition of image by the reflection interference detection camera 110, a chemical dispensing operation of the dispenser 117 is performed to dispense an intended chemical in an intended concentration to the solution in which the cells 101 are immersed.
# The analysis unit 202 calculates a parameter about adhesion between each cell 101 and the transparent member 102a using the reflection interference images obtained intermittently in this manner (step S102, corresponding to “analysis step” in the scope of claims). In the present embodiment, the analysis unit calculates a “change rate of average luminosity” as the parameter to evaluate the change of membrane potential of cell 101 (corresponding to “parameter about adhesion” in the scope of claims).
# When the image reception unit 201 receives the reflection interference images sequentially output from the reflection interference detection camera 110, the analysis unit 202 calculates the average luminosity I(t) of the measurement region in each of the reflection interference images and calculates a change rate dI relative to an average luminosity of the measurement region acquired in advance before chemical dispensation (which will be referred to hereinafter as average luminosity I(base) as a base”) (step S103, corresponding to “analysis step” in the scope of claims). […] The change rate dI is calculated by the formula below. […]
# The analysis unit 202 detects a change of membrane potential of the cells 101 on the basis of the change rate dI calculated by the above formula. Namely, when a predetermined change rate dI is calculated, the analysis unit 202 makes such a valuation that there is some change detected in membrane potential in the cells 101. The analysis unit 202 may output a plot along time axis of the change rate dI (%) relative to the average luminosity before chemical dispensation calculated by the above formula, e.g., graphs as shown in (A) of FIGS. 8 and (B) of FIG. 8. […]
smiles,measurement,setting,value
"[Cl-].[K+] [KCl, potassium chloride]",change rate of average luminosity at the peak,KCl concentration 6.25 mM,+8%
same,change rate of average luminosity at the peak,KCl concentration 25 mM,+35%
same,change rate of average luminosity at the peak,KCl concentration 50 mM,+55%
same,change rate of average luminosity at the peak,KCl concentration 100 mM,+95%
same,change of reflection interference image after dispensation,"image at 5 minutes after dispensation, FIG. 9","the CHO cells departed from the transparent member on which the cells were laid, to make the reflection interference image brighter"
